# Laboratory results reported in US12629405B2, “Ezrin peptide 1 for use in a method of treating COVID-19” ([…], priority 2020, dated 2026).
# Ends that are not written are not given here.
# Assays:
# J-96 Human Cell Line = details: cell cultures (Ataullakhanov et al. 2005); cited from earlier work
# Toxicity at high dosages = format: in vivo; details: high dosages of 50 mg per kg body weight per day or higher
# Experimental: The dosage of Ezrin peptide 1 and its analogues is not particularly critical, as Ezrin peptide 1 and its analogues are not toxic even at high dosages of 50 mg per kg body weight per day or higher. Preferably, Ezrin peptide 1 and its analogues are administered to an adult human in an amount of at least 0.1 mg per day, in particular at least 0.2 mg per day, e.g. in an amount of at least 0.5 mg per day, such as 0.1 to 50 mg per day or 0.2 to 20 mg per day or 0.5 to 10 mg per day. Typically for parental administrations lower dosages will be required than for oral or rectal administration. To achieve a rapid relief of the symptoms of COVID-19 it may be reasonable to administer at least 1 mg per day or at least 2 mg per day but in other cases a lower dosage may be suitable.
# [1] = test system: inflammatory cytokine production; details: cell cultures; cited from earlier work
# SARS-COV-2 = test: Treatment of COVID-19 patients with Ezrin peptide 1 (individual case reports, Examples 1-6); format: in vivo, human
sequence,measurement,setting,value
"TEKKRRETVEREKE [Ezrin peptide 1, NH2_Thr-Glu-Lys-Lys-Arg-Arg-Glu-Thr-Val-Glu-Arg-Glu-Lys-Glu_COOH]",anti-viral effect,J-96 Human Cell Line,anti-viral effect
same,toxicity,Toxicity at high dosages,not toxic
same,"production of pro- and inflammatory cytokins (e.g. IL-1, IL-6, TNF-alpha)",[1],reduces
same,synthesis of alpha- and beta interferons,[1],induces
same,severe complications such as fibrosis of the lungs,SARS-COV-2; Example 1,did not occur
same,"course of disease, symptoms","SARS-COV-2; Example 1, patient, 0.2 mg s.c. daily, 16.03.2020, 3rd administration",increasing symptoms with strong eye pain
same,"course of disease, symptoms","SARS-COV-2; Example 1, patient, 0.2 mg s.c. daily, 17.03.2020, 4th administration",increasing symptoms with more cough
same,"course of disease, symptoms","SARS-COV-2; Example 1, patient, 0.2 mg s.c. daily, 18.03.2020, 5th administration","significant signs of recovery, no eye pain, decreasing fever"
same,"course of disease, symptoms","SARS-COV-2; Example 1, patient, 0.2 mg s.c. daily, 19.03.2020, 6th administration","significant signs of recovery, normal body temperature, no fatigue"
same,"course of disease, symptoms","SARS-COV-2; Example 1, patient, 0.2 mg s.c. daily, 20.03.2020, 7th administration","return of taste, good general condition"
same,"course of disease, symptoms","SARS-COV-2; Example 1, patient, 0.2 mg s.c. daily, 21.03.2020, 8th administration",no signs of illness anymore
same,course of the disease (duration),"SARS-COV-2; Example 1, compared to the course expected for patients of this risk group",significantly shorter
same,severity of symptoms after administration,"SARS-COV-2; Example 1, compared with what one would have expected in a patient of this risk group",significantly lower
same,"course of disease, symptoms","SARS-COV-2; Example 2, patient, 2 mg s.c., 25.04.2020, second dose","still general weakness, shortness of breath, cough, loss of appetite"
same,body temperature,"SARS-COV-2; Example 2, patient, 2 mg s.c., 26.04.2020 in the evening, third administration",37.5 °C
same,"course of disease, symptoms","SARS-COV-2; Example 2, patient, 2 mg s.c., 26.04.2020, third administration","Still loss of appetite, slight cough"
same,"course of disease, symptoms","SARS-COV-2; Example 2, patient, 2 mg s.c., 27.04.2020, fourth dose","Slight cough, slight headache"
same,"course of disease, symptoms","SARS-COV-2; Example 2, patient, 2 mg s.c., 28.04.2020, fifth administration","Only slight pain of touching the scalp, still slight weakness"
same,"course of disease, symptoms","SARS-COV-2; Example 2, patient, 2 mg s.c., 30.04.2020, sixth administration","Significant improvement of clinical symptoms, normal temperature"
same,"course of disease, symptoms","SARS-COV-2; Example 2, patient, 01. to 04.05.2020, after six doses, antibiotic coverage","taste completely returned, no more cough, no more fever, clinical well-being"
same,"course of disease, symptoms","SARS-COV-2; Example 3, patient, 25.12.2020, therapy begun 23.12.2020 with 2 mg/d s.c.",significant improvement of cough and general condition
same,"course of disease, symptoms","SARS-COV-2; Example 3, patient, after completion of therapy (2 mg/d then 0.2 mg/d for four days, s.c.)",No further symptoms
same,"course of disease, symptoms","SARS-COV-2; Example 4, patient, 25.12.2020, therapy begun 23.12.2020 with 2 mg/d s.c.",significant improvement of cough and general condition
same,"course of disease, symptoms","SARS-COV-2; Example 4, patient, after completion of therapy (2 mg/d two days, 0.2 mg/d four days, s.c.)",No further symptoms
same,"course of disease, symptoms","SARS-COV-2; Example 5, patient, 26.12.2020, therapy begun 23.12.2020 with 2 mg/d s.c.",significant improvement of symptoms
same,shortness of breath,"SARS-COV-2; Example 5, patient, after subsequent 0.2 mg/d s.c. for fourteen days from 15.01.2021",No further shortness of breath
same,"course of disease, symptoms","SARS-COV-2; Example 6, patient, 14.12.2020, 0.2 mg/d s.c. begun 10.12.2020",significant improvement of symptoms
same,"course of disease, symptoms","SARS-COV-2; Example 6, patient, 20.12.2020, 0.2 mg/d s.c. for ten days",complete recovery of symptoms
